The text below walks through data of US20100047227A1, “NOVEL ANTICANCER CATHEPSIN FORMULATIONS AND ANTICANCER AGENT FOR USE IN COMBINED ANTICANCER THERAPY” (priority 2006, published 2010).

Test [1] has as its system human prostate cancer ALVA-41 cells. As to the kind of experiment: survival rate of cells (Cell Counting Kit-8), ALVA-41 cells. Format: cell-based. The following applies: ALVA-41 cells, 20 hours, neutral pH, 10-100 μg/ml. As for the experimental part:
The survival rate of cells was measured by Cell Counting Kit-8 in accordance with a manufacturer's manual. The method will be described briefly as follows. A 96-well (each 100 μl) plate was inoculated with cells (1×10^4 cells) and incubated for 24 hours, and the cells were incubated in a non-serum culture medium Opti-MEM together with a given concentration of each cathepsin purified from rat stomach (References #27 and #60-#62). Thereafter, the kit reagent (10 μl) was added to each well and the wells were incubated for another 1 hour. After incubation, each well was measured at the absorbance of 450 nm with a microplate reader.
In the figure, an indicating bar scale represents 50 μm. […] In the figure, an indicating bar scale represents 50 μm.
In this experiment, the survival rate of the ALVA-41 cells was measured by incubating the cells with cathepsin E of a given concentration in the presence or absence of pepstatin A (100 μM) at 37° C. and pH 7.4 for 20 hours. The data is represented as a percentage with respect to the value for non-treated cell group. The data were obtained as an average value±SD from the data obtained by four separate experiments. […] In this experiment, the HEK293 cells were incubated together with a given concentration of natural cathepsin E, wild-type recombinant and the active site mutant (D98A/D283A) at 37° C. and pH 7.4 for 20 hours. The survival rate of the cells was measured and represented as a percentage with respect to the value of the non-treated cell group. The data represents an average value±SD from the data obtained by four separate experiments. In the value, *p<0.001 is a corresponding value for the cells treated with the mutant. […] In this experiment, ALVA-41 cells were treated solely with cathepsin E of a given concentration in the same manner as for FIG. 2A and the culture supernatant was recovered, followed by centrifuging to remove the precipitate and transferring a portion ([…]) of the supernatant to a freshly prepared culture of ALVA-41 cells. Thereafter, the cells were incubated at 37° C. and pH 7.4 for 20 hours in the absence (black round mark) or presence (white round mark) of pepstatin A (100 μM) and measured for the survival rate of the cells. The cell survival rate is represented as a percentage with respect to the value of the cells treated with the culture supernatant of the ALVA-41 cells treated with physiological saline. The data is represented as an average value±SD from the data obtained by four separate experiments. […] The cathepsin E activity (on the upper panel) and the cytotoxic activity (on the lower panel) of each column fraction were determined using freshly prepared ALVA-41 cells and a cathepsin E-specific substrate. The cell survival rate of each fraction treated with the protein at a given final concentration is represented as a percentage with respect to the value of the cells treated with physiological saline and as an average value±SD from the data obtained by four separate experiments. The cathepsin E activity is represented as a percentage of the total activity in the culture supernatant, and the data is represented as an average±SD from the data obtained by three separate experiments.
(In general: Tetrazolium dyes change colour on reduction, which living cells bring about.)

A further test concerns FasL. As to the kind of experiment: ELISA of FasL in culture supernatant of ALVA-41 cells. Format: cell-based, human. The following applies: ALVA-41 cells treated with cathepsin E 100 μg/ml, 20 hours. On the procedure:
ALVA-41 cells (1×10^6 cells per a 6-cm dish) were incubated together with cathepsin E (100 μg/ml) in a non-serum culture medium Opti-MEM at 37° C. for 20 hours. The resulting culture supernatant was measured for amounts of TRAIL, FasL and TNF-α with ELSA kit in a manner as will be described briefly. A sample and a standard product (each 100 μl) were added to a microtiter plate immobilized with a monoclonal antibody to the corresponding member of the TNF family and incubated at room temperature for 2 hours. Then, the wells of the microtiter plate were washed four times with a washing buffer and 100 μl of biotin-conjugated monoclonal antibody was added to each wells of the plate, following by incubation at room temperature for 1 hour and washing the wells of the plate completely. Then, they were incubated together with 100 μl of streptoavidin-conjugated horseradish peroxidase at room temperature for 30 minutes and washed four times with a washing buffer. […] After an addition of a reaction terminating solution, the wells were measured at 450 nm with microreader.
In this experiment, the ALVA-41 cells were treated with cathepsin E (100 μg/ml) or physiological saline at 37° C. and pH 7.4 for 20 hours and measured for the amounts of TNF-α, FasL and TRAIL in the culture supernatant by ELSA. […] Apoptosis of the ALVA-41 cells was measured using the culture supernatant after immunoprecipitation. […]
For orientation: In an ELISA, binding on a coated surface is turned into a signal by an enzyme label.

For the substance cathepsin E, in test [1], the “number of living cells” value is “decreases the number of survived carcinoma cells in a dose-dependent fashion”. For the same substance, the “FasL in culture supernatant” value in the test on FasL was “little detected”.
